The nature of data set [1]: Acute toxicity in male Kunming mouse assessed as histopathological changes in lung at 250 mg/kg administered via gavage by H and E staining based analysis. The note with it: in vivo, po. The class given is organism-based.
A short description of data set [2]: Cytotoxicity against mouse BV-2 cells assessed as cell viability at 10 uM by MTT assay relative to control. In kind it is toxicity, cell-based. The note with it: read-out: Activity. (In general: Tetrazolium dyes change colour on reduction, which living cells bring about.)
The subject of data set [3] is BV-2. The data set can be described thus: Antiinflammatory activity in LPS induced mouse BV-2 cells assessed as downregulation of TNF-alpha mRNA expression level preincubated for 2 hrs followed by LPS addition and measured after 24 hrs by qRT-PCR analysis. The class given is functional, cell-based. To be noted: dose 5-10 µM, time 26.0 hrs. (In general: Real-time PCR tracks product formation cycle by cycle.)

Data set [4] relates to BV-2. The data set is described as follows: Antiinflammatory activity in LPS-induced mouse BV-2 cells assessed as downregulation of iNOS mRNA expression level at 5 to 10 uM preincubated for 2 hrs followed by LPS addition and measured after 6 hrs by qRT-PCR analysis. In kind it is functional, cell-based. The note with it: dose 5-10 µM, time 8.0 hrs.
Data set [5] has as its target T1, Signal transducer and activator of transcription 1 (Mus musculus) (UniProt P42225).
T1 sequence (whole entry): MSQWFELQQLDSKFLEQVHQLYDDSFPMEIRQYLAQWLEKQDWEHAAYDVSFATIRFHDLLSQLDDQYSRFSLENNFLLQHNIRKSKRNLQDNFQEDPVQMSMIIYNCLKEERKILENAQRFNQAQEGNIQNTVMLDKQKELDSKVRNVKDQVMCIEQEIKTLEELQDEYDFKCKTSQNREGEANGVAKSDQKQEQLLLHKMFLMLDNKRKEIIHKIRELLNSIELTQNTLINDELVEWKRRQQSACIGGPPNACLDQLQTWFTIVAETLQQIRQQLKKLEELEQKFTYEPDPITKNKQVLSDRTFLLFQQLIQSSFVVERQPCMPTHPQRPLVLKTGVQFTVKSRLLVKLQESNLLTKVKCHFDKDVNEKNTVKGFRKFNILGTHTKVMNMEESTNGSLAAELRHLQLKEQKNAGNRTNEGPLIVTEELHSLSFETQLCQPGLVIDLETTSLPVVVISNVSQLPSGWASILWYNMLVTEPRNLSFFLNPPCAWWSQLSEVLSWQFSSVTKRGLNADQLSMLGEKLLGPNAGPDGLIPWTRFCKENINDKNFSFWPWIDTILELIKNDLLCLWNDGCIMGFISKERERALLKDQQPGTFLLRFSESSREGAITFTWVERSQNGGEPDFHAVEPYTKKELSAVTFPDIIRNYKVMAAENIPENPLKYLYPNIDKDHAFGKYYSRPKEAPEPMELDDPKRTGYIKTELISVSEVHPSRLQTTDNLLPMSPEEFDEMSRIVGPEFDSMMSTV
The data set can be described thus: Inhibition of STAT1 phosphorylation at Tyr701 residue in LPS-induced mouse BV-2 cells at 5 to 10 uM preincubated for 2 hrs followed by LPS addition and measured after 3 hrs by Western blot analysis. The class given is cell-based. To be noted: dose 5-10 µM, time 5.0 hrs. In general terms: A western blot detects proteins with antibodies after separation by electrophoresis.

In data set [6] the test system is BV-2. The data set is described as follows: Inhibition of LPS-induced nuclear translocation of p-STAT1 in mouse BV-2 cells at 10 uM preincubated for 2 hrs followed LPS addition and measured after 3 hrs by DAPI staining based immunofluorescence assay. To be noted: time 5.0 hrs. The class given is functional, cell-based.
The nature of data set [7]: Acute toxicity in female Kunming mouse assessed as effect on body weight at 250 mg/kg administered via gavage for 14 days. The class given is organism-based. To be noted: in vivo, po, 336 h, time 14 day.
The nature of data set [8]: Acute toxicity in male Kunming mouse assessed as effect on body weight at 250 mg/kg administered via gavage for 14 days. The note with it: in vivo, po, 336 h, time 14 day. The class given is organism-based.
A short description of data set [9]: Acute toxicity in male Kunming mouse assessed as effect on organ coefficient of spleen at 250 mg/kg administered via gavage. In kind it is organism-based. To be noted: in vivo, po.
Data set [10] in a line: Acute toxicity in male Kunming mouse assessed as effect on organ coefficient of kidney at 250 mg/kg administered via gavage. The class given is organism-based. The note with it: in vivo, po.
Data set [11] is described as follows: Acute toxicity in female Kunming mouse assessed as effect on organ coefficient of spleen at 250 mg/kg administered via gavage. In kind it is organism-based. The note with it: in vivo, po.
Data set [12] is described as follows: Acute toxicity in female Kunming mouse assessed as effect on organ coefficient of kidney at 250 mg/kg administered via gavage. The note with it: in vivo, po. In kind it is organism-based.
Data set [13] can be described thus: Acute toxicity in female Kunming mouse assessed as histopathological changes in spleen at 250 mg/kg administered via gavage by H and E staining based analysis. In kind it is organism-based. To be noted: in vivo, po.
Data set [14] is described as follows: Acute toxicity in female Kunming mouse assessed as effect on GOT level in blood at 250 mg/kg administered via gavage by biochemical analysis. In kind it is organism-based. The note with it: in vivo, po.

This is an account of results in ChEMBL document CHEMBL6153034, “Synthesis of dolutegravir derivatives modified by 1,2,3-triazole structure and their anti-inflammatory activity in LPS-induced BV2 cells” (Bioorg Med Chem Lett, 2025).

Molecules are shown by their SMILES. Active and inactive are the calls of the source. No cut-off for these calls is given here.

On to `COc1c2n(cc(C(=O)Nc3cccc(-c4cn(-c5ccccc5Cl)nn4)c3)c1=O)C[C@@H]1OCC[C@@H](C)N1C2=O`, for which the Activity entry is “Non-toxic” in [1]; “Dose-dependent-effect” with BV-2 [3]; “Non-toxic” in data set [7]; “Non-toxic” in data set [8]; “Non-toxic” in data set [9]; “Non-toxic” in data set [10]. The Activity result in [11], in data set [12], in [13] and in data set [14] was “Non-toxic” throughout. Also, the viability at 10 µM in [2] was found to be 86.7%. For the same molecule, in the data set on BV-2 [4], the outcome was Active. The inhibition result (in [5]; with BV-2 [6]) was “Active” in each case.
